Data as given in patent US6737383B1, “Herbicidal oxadiazolidines” (priority 1999, dated 2004).

Legend:
[1] = system: wheat; experiment: Test B pre/postemergence wheat; type: in vivo, Triticum aestivum
In short: (§1)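 Response is a visual 0-to-10 score relative to untreated plants, where 0 means no effect and 10 means complete control, taken twelve to sixteen days after application. Treatments went onto soil at planting and onto foliage of 1- to 4-leaf plants, using a surfactant-containing non-phytotoxic solvent.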

[2] = system: bamyardgrass; experiment: Test B flood test barnyardgrass; type: in vivo, Echinochloa crus-galli
In short: (§2)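 Plants were grown to the 2-leaf stage before treatment with test chemical, then held in a greenhouse for twelve to sixteen days. Injury was visually rated against untreated controls on a 0–10 scale, where 0 is no effect and 10 is complete control.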

[3] = system: cocklebur; experiment: Test B pre/postemergence cocklebur; type: in vivo, Xanthium strumarium
In short: as §1

[4] = system: corn; experiment: Test B pre/postemergence corn; type: in vivo, Zea mays
In short: as §1

[5] = system: morningglory; experiment: Test B pre/postemergence morningglory; type: in vivo, Ipomoea hederacea
In short: as §1

[6] = system: rape; experiment: Test B pre/postemergence rape; type: in vivo, Brassica napus; settings: for Rape plant response rating: Rate 62 g/ha
In short: as §1

[7] = system: soybean; experiment: Test B pre/postemergence soybean; type: in vivo, Glycine max
In short: as §1

[8] = system: purple nutsedge; experiment: Test B pre/postemergence purple nutsedge; type: in vivo, Cyperus rotundus
In short: as §1

[9] = system: rice; experiment: Test B flood test rice; type: in vivo, Oryza sativa
In short: as §2

[10] = system: sugar beet; experiment: Test B pre/postemergence sugar beet; type: in vivo, Beta vulgaris
In short: as §1

[11] = system: pigweed; experiment: Test B pre/postemergence pigweed; type: in vivo, Amaranthus retroflexus
In short: as §1

[12] = system: crabgrass; experiment: Test B pre/postemergence crabgrass; type: in vivo, Digitaria sanguinalis
In short: as §1

[13] = system: smallflower flatsedge; experiment: Test B flood test smallflower flatsedge; type: in vivo, Cyperus difformis
In short: as §2

[14] = system: surinam grass; experiment: Test B pre/postemergence surinam grass; type: in vivo, Brachiaria decumbens
In short: as §1

[15] = system: wild oat; experiment: Test B pre/postemergence wild oat; type: in vivo, Avena fatua
In short: as §1

[16] = system: bedstraw; experiment: Test B pre/postemergence bedstraw; type: in vivo, Galium aparine; settings: for Bedstraw plant response rating: Rate 62 g/ha
In short: as §1

[17] = system: velvetleaf; experiment: Test B pre/postemergence velvetleaf; type: in vivo, Abutilon theophrasti
In short: as §1

[18] = system: giant foxtail; experiment: Test B pre/postemergence giant foxtail; type: in vivo, Setaria faberii
In short: as §1

[19] = system: blackgrass; experiment: Test B pre/postemergence blackgrass; type: in vivo, Alopecurus myosuroides
In short: as §1

[20] = system: duck salad; experiment: Test B flood test duck salad; type: in vivo, Heteranthera limosa
In short: as §2

[21] = Postemergence, Rate 125 g/ha, scale 0 to 10, 0 is no effect, 10 is complete control
[22] = Preemergence, Rate 62 g/ha, scale of 0 to 10 where 0 is no effect and 10 is complete control
[23] = Preemergence, Rate 250 g/ha, scale of 0 to 10 where 0 is no effect and 10 is complete control
[24] = Preemergence, Rate 500 g/ha, scale of 0 to 10 where 0 is no effect and 10 is complete control
[25] = Rate 62 g/ha, Postemergence, scale 0 to 10 (0 no effect, 10 complete control)
[26] = Rate 500 g/ha, Postemergence, scale 0 to 10, 0 no effect, 10 complete control
[27] = Rate 62 g/ha, headed Pre-emergence (flood test species), scale 0 to 10 (0 no effect, 10 complete control)
[28] = Rate 125 g/ha, Pre-emergence, flood test species, scale 0 to 10 where 0 is no effect and 10 is complete control
[29] = Rate 250 g/ha, Pre-emergence, flood-test species, scale 0 to 10, 0 is no effect, 10 is complete control
[30] = Rate 500 g/ha, Pre-emergence, flood test species, scale 0 to 10 (0 no effect, 10 complete control)
[31] = Preemergence, scale of 0 to 10 where 0 is no effect and 10 is complete control
[32] = Postemergence, scale 0 to 10 (0 no effect, 10 complete control)
[33] = Rate 250 g/ha, Postemergence, scale of 0 to 10 where 0 is no effect and 10 is complete control

## CC(C)N(C(=O)n1oc(=O)n(-c2ccc3ccccc3c2)c1=O)c1ccc(F)cc1 [Compound 329]
[1]; [21]
  Plant response rating, Wheat: 0
[1]; [22]
  Wheat plant response rating: 0
[1]; Preemergence, Rate 125 g/ha
  Wheat plant response rating (0 to 10 scale): 0
[1]; [23]
  Wheat plant response rating: 0
[1]; [24]
  Wheat plant response rating: 0
[1]; [25]
  Wheat plant response rating: 0
[1]; [26]
  Plant response rating, Wheat: 0
[2]; [27]
  Barnyardgrass plant response rating: 0
[2]; [28]
  Barnyardgrass plant response rating: 0
[2]; [29]
  Barnyardgrass plant response rating: 0
[2]; [30]
  Barnyardgrass plant response rating: 0
[3]; [21]
  Plant response rating, Cocklebur: 0
[3]; [22]
  Cocklebur plant response rating: 0
[3]; Preemergence, Rate 125 g/ha
  Cocklebur plant response rating (0 to 10 scale): 0
[3]; [23]
  Cocklebur plant response rating: 0
[3]; [24]
  Cocklebur plant response rating: 0
[3]; [25]
  Cocklebur plant response rating: 0
[3]; [26]
  Plant response rating, Cocklebur: 4
[4]; [21]
  Plant response rating, Corn: 0
[4]; [22]
  Corn plant response rating: 0
[4]; Preemergence, Rate 125 g/ha
  Corn plant response rating (0 to 10 scale): 0
[4]; [23]
  Corn plant response rating: 0
[4]; [24]
  Corn plant response rating: 0
[4]; [25]
  Corn plant response rating: 0
[4]; [26]
  Plant response rating, Corn: 0
[5]; [21]
  Plant response rating, Morningglory: 0
[5]; [22]
  Morningglory plant response rating: 0
[5]; Preemergence, Rate 125 g/ha
  Morningglory plant response rating (0 to 10 scale): 0
[5]; [23]
  Morningglory plant response rating: 0
[5]; [24]
  Morningglory plant response rating: 0
[5]; [25]
  Morningglory plant response rating: 0
[5]; [26]
  Plant response rating, Morningglory: 0
[6]; [21]
  Plant response rating, Rape: 0
[6]; [31]
  Rape plant response rating: 0
[6]; Preemergence, Rate 125 g/ha
  Rape plant response rating (0 to 10 scale): 0
[6]; [32]
  Rape plant response rating: 0
[6]; [26]
  Plant response rating, Rape: 0
[7]; [21]
  Plant response rating, Soybean: 1
[7]; [22]
  Soybean plant response rating: 0
[7]; Preemergence, Rate 125 g/ha
  Soybean plant response rating (0 to 10 scale): 0
[7]; [23]
  Soybean plant response rating: 0
[7]; [24]
  Soybean plant response rating: 0
[7]; [25]
  Soybean plant response rating: 1
[7]; [26]
  Plant response rating, Soybean: 2
[8]; [21]
  Plant response rating, Nutsedge: 0
[8]; [22]
  Nutsedge plant response rating: 0
[8]; [23]
  Nutsedge plant response rating: 0
[8]; [25]
  Nutsedge plant response rating: 0
[8]; [26]
  Plant response rating, Nutsedge: 0
[9]; [27]
  Rice plant response rating: 0
[9]; [28]
  Rice plant response rating: 0
[9]; [29]
  Rice plant response rating: 0
[9]; [30]
  Rice plant response rating: 0
[10]; [21]
  Plant response rating, Sugarbeets: 0
[10]; [22]
  Sugarbeets plant response rating: 0
[10]; Preemergence, Rate 125 g/ha
  Sugarbeets plant response rating (0 to 10 scale): 0
[10]; [23]
  Sugarbeets plant response rating: 0
[10]; [24]
  Sugarbeets plant response rating: 0
[10]; [25]
  Sugarbeets plant response rating: 0
[10]; [26]
  Plant response rating, Sugarbeets: 0
[11]; [21]
  Plant response rating, Redroot pigweed: 0
[11]; [22]
  Redroot pigweed plant response rating: 0
[11]; Preemergence, Rate 125 g/ha
  Redroot pigweed plant response rating (0 to 10 scale): 0
[11]; [23]
  Redroot pigweed plant response rating: 0
[11]; [24]
  Redroot pigweed plant response rating: 0
[11]; [25]
  Redroot pigweed plant response rating: 0
[11]; [26]
  Plant response rating, Redroot pigweed: 0
[12]; [21]
  Plant response rating, Crabgrass: 0
[12]; [22]
  Crabgrass plant response rating: 0
[12]; Preemergence, Rate 125 g/ha
  Crabgrass plant response rating (0 to 10 scale): 0
[12]; [23]
  Crabgrass plant response rating: 0
[12]; [24]
  Crabgrass plant response rating: 3
[12]; [25]
  Crabgrass plant response rating: 0
[12]; [26]
  Plant response rating, Crabgrass: 0
[13]; [27]
  S. Flatsedge plant response rating: 0
[13]; [28]
  S. Flatsedge plant response rating: 0
[13]; [29]
  S. Flatsedge plant response rating: 0
[13]; [30]
  S. Flatsedge plant response rating: 0
[14]; [21]
  Plant response rating, B. signalgrass: 0
[14]; [22]
  B. signalgrass plant response rating: 0
[14]; Preemergence, Rate 125 g/ha
  B. signalgrass plant response rating (0 to 10 scale, 0 is no effect, 10 is complete control): 0
[14]; [23]
  B. signalgrass plant response rating: 0
[14]; [24]
  B. signalgrass plant response rating: 0
[14]; [25]
  B. signalgrass plant response rating: 0
[14]; [33]
  Plant response rating, B. signalgrass: 0
[14]; [26]
  Plant response rating, B. signalgrass: 0
[15]; [21]
  Plant response rating, Wild oats: 0
[15]; [22]
  Wild oats plant response rating: 0
[15]; Preemergence, Rate 125 g/ha
  Wild oats plant response rating (0 to 10 scale): 0
[15]; [23]
  Wild oats plant response rating: 0
[15]; [24]
  Wild oats plant response rating: 0
[15]; [25]
  Wild oats plant response rating: 0
[15]; [26]
  Plant response rating, Wild oats: 0
[16]; [21]
  Plant response rating, Bedstraw: 0
[16]; [31]
  Bedstraw plant response rating: 0
[16]; Preemergence, Rate 125 g/ha
  Bedstraw plant response rating (0 to 10 scale): 0
[16]; [32]
  Bedstraw plant response rating: 0
[17]; [21]
  Plant response rating, Velvetleaf: 0
[17]; [22]
  Velvetleaf plant response rating: 0
[17]; Preemergence, Rate 125 g/ha
  Velvetleaf plant response rating (0 to 10 scale): 0
[17]; [23]
  Velvetleaf plant response rating: 0
[17]; [24]
  Velvetleaf plant response rating: 0
[17]; [25]
  Velvetleaf plant response rating: 0
[17]; [26]
  Plant response rating, Velvetleaf: 0
[18]; [21]
  Plant response rating, Giant foxtail: 0
[18]; [22]
  Giant foxtail plant response rating: 0
[18]; Preemergence, Rate 125 g/ha
  Giant foxtail plant response rating (0 to 10 scale): 0
[18]; [23]
  Giant foxtail plant response rating: 0
[18]; [24]
  Giant foxtail plant response rating: 3
[18]; [25]
  Giant foxtail plant response rating: 0
[18]; [26]
  Plant response rating, Giant foxtail: 0
[19]; [21]
  Plant response rating, Blackgrass: 0
[19]; [22]
  Blackgrass plant response rating: 0
[19]; Preemergence, Rate 125 g/ha
  Blackgrass plant response rating (0 to 10 scale): 0
[19]; [23]
  Blackgrass plant response rating: 0
[19]; [24]
  Blackgrass plant response rating: 0
[19]; [25]
  Blackgrass plant response rating: 0
[19]; [33]
  Plant response rating, Blackgrass: 0
[19]; [26]
  Plant response rating, Blackgrass: 0
[20]; [27]
  Ducksalad plant response rating: 0
[20]; [28]
  Ducksalad plant response rating: 0
[20]; [29]
  Ducksalad plant response rating: 0
[20]; [30]
  Ducksalad plant response rating: 0
